In patent US12510533B2, “Methods for treating multiple myeloma and the use of companion biomarkers for 4-(4-(4-(((2-(2,6-dioxopiperidin-3-yl)-1-oxoisoindolin-4-yl)oxy)methyl)benzyl)piperazin-1-yl)-3-fluorobenzonitrile” (Celgene Corporation, priority 2018, dated 2025):
Read-outs that look alike come from different tables or passages of the source.

Columns and labels:
[1] = biological target: T1, Aiolos (Homo sapiens, UniProt Q96SW2+Q9UKT9); experiment: Aiolos degradation, ePL luminescence assay in DF15 cells expressing ePL-tagged Aiolos; type: cell-based; settings: for DC50: read-out: Degradation of Aiolos IC50, DF15 cells
T1 construct: expressed in transfected cells; host or cells: DF15 multiple myeloma cells
T1 sequence (Q9UKT9 whole entry): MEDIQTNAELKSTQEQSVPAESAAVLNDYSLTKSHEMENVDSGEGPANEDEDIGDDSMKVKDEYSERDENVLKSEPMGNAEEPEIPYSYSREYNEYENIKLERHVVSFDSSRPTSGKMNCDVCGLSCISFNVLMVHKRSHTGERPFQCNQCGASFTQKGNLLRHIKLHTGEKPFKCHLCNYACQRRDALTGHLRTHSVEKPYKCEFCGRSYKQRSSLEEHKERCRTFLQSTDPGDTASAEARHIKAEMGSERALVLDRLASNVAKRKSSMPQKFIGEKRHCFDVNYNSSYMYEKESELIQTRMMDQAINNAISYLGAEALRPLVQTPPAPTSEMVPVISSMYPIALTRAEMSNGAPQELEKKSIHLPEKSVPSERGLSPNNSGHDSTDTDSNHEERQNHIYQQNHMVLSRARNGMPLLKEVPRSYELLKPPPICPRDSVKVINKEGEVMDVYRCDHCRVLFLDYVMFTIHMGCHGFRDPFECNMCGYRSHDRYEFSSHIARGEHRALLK
T1 sequence (Q96SW2 whole entry): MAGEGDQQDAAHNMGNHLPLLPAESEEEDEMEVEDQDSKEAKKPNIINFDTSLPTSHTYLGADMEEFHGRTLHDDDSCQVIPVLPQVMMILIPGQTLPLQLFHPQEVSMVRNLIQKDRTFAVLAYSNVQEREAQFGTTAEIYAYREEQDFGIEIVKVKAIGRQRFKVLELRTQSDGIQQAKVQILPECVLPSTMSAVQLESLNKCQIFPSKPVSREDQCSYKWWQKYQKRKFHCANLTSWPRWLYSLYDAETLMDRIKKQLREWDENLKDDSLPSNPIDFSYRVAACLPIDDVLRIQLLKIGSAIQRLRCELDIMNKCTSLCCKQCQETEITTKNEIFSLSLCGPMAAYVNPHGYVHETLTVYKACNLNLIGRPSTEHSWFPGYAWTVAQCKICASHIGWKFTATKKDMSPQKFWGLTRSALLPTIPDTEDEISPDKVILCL
T1 sequence (Q16531 2-1140, further chain): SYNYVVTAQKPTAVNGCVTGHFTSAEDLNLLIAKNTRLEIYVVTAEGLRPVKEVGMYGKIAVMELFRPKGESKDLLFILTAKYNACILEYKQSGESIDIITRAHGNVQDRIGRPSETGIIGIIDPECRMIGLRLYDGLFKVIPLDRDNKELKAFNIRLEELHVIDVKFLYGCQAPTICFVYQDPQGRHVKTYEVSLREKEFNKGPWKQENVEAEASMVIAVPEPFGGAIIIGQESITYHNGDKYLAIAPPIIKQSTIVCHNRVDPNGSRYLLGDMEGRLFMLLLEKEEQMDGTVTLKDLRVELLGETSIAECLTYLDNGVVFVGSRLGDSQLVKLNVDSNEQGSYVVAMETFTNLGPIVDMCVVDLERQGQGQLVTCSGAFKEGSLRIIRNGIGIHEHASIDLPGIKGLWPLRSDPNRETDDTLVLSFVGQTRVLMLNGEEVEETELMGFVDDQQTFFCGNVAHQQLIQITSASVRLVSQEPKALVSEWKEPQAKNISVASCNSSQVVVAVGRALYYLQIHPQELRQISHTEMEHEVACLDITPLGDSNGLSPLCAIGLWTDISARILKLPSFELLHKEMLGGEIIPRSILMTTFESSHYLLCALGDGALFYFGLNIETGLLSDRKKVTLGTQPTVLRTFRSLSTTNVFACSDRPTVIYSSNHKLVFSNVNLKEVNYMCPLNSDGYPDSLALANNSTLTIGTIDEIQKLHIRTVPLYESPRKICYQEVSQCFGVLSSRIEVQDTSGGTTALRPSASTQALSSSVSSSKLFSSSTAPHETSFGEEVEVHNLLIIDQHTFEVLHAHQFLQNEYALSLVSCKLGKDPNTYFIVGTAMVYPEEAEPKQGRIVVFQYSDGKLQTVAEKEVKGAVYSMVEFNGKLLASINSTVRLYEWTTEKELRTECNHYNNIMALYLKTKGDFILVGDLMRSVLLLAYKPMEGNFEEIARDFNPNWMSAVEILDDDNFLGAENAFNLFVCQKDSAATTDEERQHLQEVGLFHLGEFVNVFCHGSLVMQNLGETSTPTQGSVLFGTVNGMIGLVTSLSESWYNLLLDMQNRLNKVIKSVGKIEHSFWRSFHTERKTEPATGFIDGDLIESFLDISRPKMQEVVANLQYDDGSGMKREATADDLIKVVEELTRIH
Method: FIG. 1 illustrates that Compound 2 and Compound 3 degraded Aiolos protein in a time and concentration dependent manner. DF15 cells expressing Enhanced ProLabel (ePL)-tagged Aiolos were incubated with Compound 2 (triangle) or Compound 3 (square) for 45 minutes, 90 minutes, or 3 hours at the indicated concentrations. Cell extracts were then generated and the amount of Aiolos-ePL protein was determined by ePL luminescence assay.
The relative effectiveness of Compound 2 and Compound 3 to promote the destruction of Aiolos protein by the CRL4^CRBN E3 ubiquitin ligase was investigated in DF15 myeloma cells at different time points (45 minutes, 90 minutes, and 3 hours). DF15 cells expressing Enhanced ProLabel (ePL)-tagged Aiolos were incubated with Compound 2 or Compound 3 for 45 minutes, 90 minutes, or 3 hours. Cell extracts were then generated and the amount of Aiolos ePL protein was determined by ePL luminescence assay. Values shown in Table 1 correspond to data presented in FIG. 1 for Aiolos content vs. concentration.

[2] = tested on: OPM2 cells; experiment: cells; type: cell-based, human; settings: Homo sapiens, read-out: Inhibition of Proliferation of OPM2 Cells IC50
Method: The effect of the stabilizing mutations on cell proliferation was also measured.

| SMILES | manner of Aiolos degradation ([1]; 45 minutes, 90 minutes, 3 hours) | inhibition at 0.001 µM ([1]; DF15, read-out: inhibition at 0.001 μM) [%] | DC50 ([1]; 45 minutes incubation) [nM] | DC50 ([1]; 90 minutes incubation) [nM] | DC50 ([1]; 3 hours incubation) [nM] | IC50 ([2]; OPM-2, Parental) [nM] | IC50 ([2]; OPM-2, overexpressing Aiolos Q147H) [nM] | IC50 ([2]; OPM-2, overexpressing Aiolos) [nM] | IC50 ([2]; OPM-2, overexpressing Ikaros-G151A) [nM] | IC50 ([2]; OPM-2, overexpressing Ikaros-Q146H) [nM] | IC50 ([2]; OPM-2, overexpressing Ikaros) [nM] | IC50 ([2]; OPM-2, overexpressing ZFP91-Q400H) [nM] |
| --- | --- | --- | --- | --- | --- | --- | --- | --- | --- | --- | --- | --- |
| N#Cc1ccc(N2CCN(Cc3ccc(COc4cccc5c4CN([C@@H]4CCC(=O)NC4=O)C5=O)cc3)CC2)c(F)c1 [Compound 3, (R)-4-(4-(4-(((2-(2,6-dioxopiperidin-3-yl)-1-oxoisoindolin-4-yl)oxy)methyl)benzyl)piperazin-1-yl)-3-fluorobenzonitrile] | time-dependent and concentration-dependent | 13 | > 100 | 5.9 | 0.45 | – | – | – | – | – | – | – |
| Nc1cccc2c1C(=O)N(C1CCC(=O)NC1=O)C2=O (stereo not drawn) [Pomalidomide, pomalidomide, reference compound] | – | – | – | – | – | 64 | 56 | 89 | > 100 | > 100 | 91 | 73 |
